In test [1] the target is T1, SERT (Homo sapiens, UniProt P31645). The test can be described thus: fluorescence-based serotonin uptake assay (Tsuruda et al. 2010). The class given is cell-based. Conditions: serotonin reuptake inhibition, fluorescence-based assay (data indicated by an asterisk); read-out: SERT pIC50 (converted).
Target sequence in this assay (P31645 whole entry, species assumed): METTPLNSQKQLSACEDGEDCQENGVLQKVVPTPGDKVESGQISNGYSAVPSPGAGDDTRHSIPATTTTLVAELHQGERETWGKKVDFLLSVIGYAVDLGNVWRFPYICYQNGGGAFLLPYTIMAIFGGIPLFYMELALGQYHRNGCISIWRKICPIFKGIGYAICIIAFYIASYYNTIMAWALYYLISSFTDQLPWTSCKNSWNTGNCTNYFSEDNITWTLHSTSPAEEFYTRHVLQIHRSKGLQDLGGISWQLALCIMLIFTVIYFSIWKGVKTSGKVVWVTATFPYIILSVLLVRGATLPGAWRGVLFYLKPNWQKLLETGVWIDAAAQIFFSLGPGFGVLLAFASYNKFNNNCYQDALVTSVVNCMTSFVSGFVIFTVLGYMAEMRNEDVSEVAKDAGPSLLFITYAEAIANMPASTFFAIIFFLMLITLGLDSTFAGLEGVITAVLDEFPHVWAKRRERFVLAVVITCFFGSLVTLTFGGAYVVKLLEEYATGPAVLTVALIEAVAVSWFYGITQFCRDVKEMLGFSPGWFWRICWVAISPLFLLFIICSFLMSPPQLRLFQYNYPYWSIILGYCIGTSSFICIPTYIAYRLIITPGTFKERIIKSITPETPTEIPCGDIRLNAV
For test [2], the target named is T2, NET (Homo sapiens, UniProt P23975). The test can be described thus: hNET membrane radioligand binding assay (3H-nisoxetine). Also on record: expressed in transfected cells; host or cells: HEK-293. The note with it: hNET membranes (HEK-293), 1.0 nM 3H-nisoxetine; for Ki: read-out: NET pKi (converted). The protocol: (§1) Membrane radioligand binding assays were used to measure inhibition of labeled ligand (^3H-citalopram or ^3H-nisoxetine or ^3H-WIN35428) binding to membranes prepared from cells expressing the respective human recombinant transporter (hSERT or hNET or hDAT) in order to determine the pKi values of test compounds at the transporters.
(§2) Recombinant human embryonic kidney (HEK-293) derived cell lines stably transfected with hSERT or hNET, respectively, were grown in DMEM medium supplemented with 10% dialyzed FBS (for hSERT) or FBS (for hNET), 100 μg/ml penicillin, 100 μg/ml streptomycin, 2 mM L-glutamine and 250 μg/ml of the aminoglycoside antibiotic G418, in a 5% CO2 humidified incubator at 37° C. When cultures reached 80% confluence, the cells were washed thoroughly in PBS (without Ca^2+ and Mg^2+) and lifted with 5 mM EDTA in PBS. Cells were pelleted by centrifugation, resuspended in lysis buffer (10 mM Tris-HCl, pH7.5 containing 1 mM EDTA), homogenized, pelleted by centrifugation, then resuspended in 50 mM Tris-HCl, pH 7.5 and 10% sucrose at 4° C. Protein concentration of the membrane suspension was determined using a Bio-Rad Bradford Protein Assay kit. Membranes were snap frozen and stored at −80° C. Chinese hamster ovary membranes expressing hDAT (CHO-DAT) were purchased from PerkinElmer and stored at −80° C.
(§3) Binding assays were performed in a 96-well assay plate in a total volume of 200 μl assay buffer (50 mM Tris-HCl, 120 mM NaCl, 5 mM KCl, pH 7.4) with 0.5, 1, and 3 μg membrane protein, for SERT, NET and DAT, respectively.
(§4) Stock solutions (10 mM in DMSO) of test compound were prepared and serial dilutions made using Dilution Buffer (50 mM Tris-HCl, 120 mM NaCl, 5 mM KCl, pH 7.4, 0.1% BSA, 400 μM ascorbic acid). Non-specific radioligand binding was determined in the presence of 1 μM duloxetine, 1 μM desipramine or 10 μM GBR12909 (each in Dilution Buffer) for the hSERT, hNET or hDAT assays, respectively.
(§5) Following a 60 minute incubation at 22° C. (or a period sufficient to reach equilibrium), the membranes were harvested by rapid filtration over a 96-well UniFilter GF/B plate, pretreated with 0.3% polyethyleneimine, and washed 6 times with […] (50 mM Tris-HCl, 0.9% NaCl, pH 7.5 at 4° C.). Plates were dried overnight at room temperature, approximately […] of MicroScint™-20 (Perkin Elmer) added and bound radioactivity quantitated via liquid scintillation spectroscopy. Inhibition curves and saturation isotherms were analyzed using GraphPad Prism Software package (GraphPad Software, Inc., San Diego, Calif.). IC50 values were generated from concentration response curves using the Sigmoidal Dose Response (variable slope) algorithm in Prism GraphPad. Kd and Bmax values for the radioligand were generated from saturation isotherms using the Saturation Binding Global Fit algorithm in Prism GraphPad. pKi (negative decadic logarithm of Ki) values for test compounds were calculated from the best-fit IC50 values, and the Kd value of the radioligand, using the Cheng-Prusoff equation (Cheng & Prusoff (1973) Biochem. Pharmacol. 22(23):3099-3108): Ki=IC50/(1+[L]/Kd), where [L]=concentration radioligand.

The target of test [3] is T1, SERT. The experiment in a line: hSERT membrane radioligand binding assay (3H-citalopram). Also noted: expressed in transfected cells; host or cells: HEK-293. Conditions: hSERT membranes (HEK-293), 1.0 nM 3H-citalopram; for Ki: read-out: SERT pKi (converted). The protocol:
as §1, §2, §3, §4, §5
Target sequence in this assay (P31645 whole entry): as the sequence (P31645 whole entry, species assumed) above

Test [4] has as its target T2, NET. The test can be described thus: fluorescence-based norepinephrine uptake assay (Tsuruda et al. 2010). The note with it: norepinephrine reuptake inhibition, fluorescence-based assay (data indicated by an asterisk); read-out: NET pIC50 (converted). It is filed as cell-based.
Test [5] has as its target T2, NET. The test can be described thus: hNET neurotransmitter uptake assay (3H-NE). The note with it: norepinephrine reuptake inhibition, HEK-293 hNET cells, 3H-NE (no asterisk). Also on record: expressed in transfected cells; host or cells: HEK-293. The class given is cell-based. How it is done:
(§6) Neurotransmitter uptake assays were used to measure inhibition of ^3H-serotonin (^3H-5-HT), ^3H-norepinephrine (^3H-NE), and ^3H-dopamine (^3H-DA) uptake into cells expressing the respective transporter (hSERT, hNET or hDAT) in order to determine the pIC50 values of test compounds at the transporters.
(§7) HEK-293 derived cell lines stably-transfected with hSERT, hNET, or hDAT, respectively, were grown in DMEM medium supplemented with 10% dialyzed FBS (for hSERT) or FBS (for hNET and hDAT), 100 μg/ml penicillin, 100 μg/ml streptomycin, 2 mM L-glutamine and 250 μg/ml of the aminoglycoside antibiotic G418 (for hSERT and hNET) or 800 ug/ml (for hDAT), in a 5% CO2 humidified incubator at 37° C. When cultures reached 80% confluence, the cells were washed thoroughly in PBS (without Ca^2+ and Mg^2+) and lifted with 5 mM EDTA in PBS. Cells were harvested by centrifugation at 1100 rpm for 5 minutes, washed once by resuspension in PBS, then centrifuged. The supernatant was discarded and the cell pellet resuspended, by gentle trituration, in room temperature Krebs-Ringer bicarbonate buffer containing HEPES (10 mM), CaCl2 (2.2 mM), ascorbic acid (200 μM) and pargyline (200 μM), pH 7.4. The final concentration of cells in the cell suspension was 7.5×10^4 cells/ml, 1.25×10^5 cells/ml, and 5.0×10^4 cells/ml for SERT, NET, and DAT cell lines, respectively.
(§8) Neurotransmitter uptake assays were performed in a 96-well assay plate in a total volume of 400 μl assay buffer (Krebs-Ringer bicarbonate buffer containing HEPES (10 mM), CaCl2 (2.2 mM), ascorbic acid (200 μM) and pargyline (200 μM), pH 7.4) with 1.5×10^4 and 2.5×10^4 cells, for SERT, NET, and DAT, respectively. […] Stock solutions (10 mM in DMSO) of test compound were prepared and serial dilutions prepared using 50 mM Tris-HCl, 120 mM NaCl, 5 mM KCl, pH 7.4, 0.1% BSA, 400 μM ascorbic acid. Test compounds were incubated for 30 minutes at 37° C. with the respective cells, prior to addition of radiolabeled neurotransmitter, ^3H-5-HT (20 nM final concentration), ^3H-NE (50 nM final concentration) or ^3H-DA (100 nM final concentration). Non-specific neurotransmitter uptake was determined in the presence of 2.5 μM duloxetine, 2.5 μM desipramine, or 10 uM GBR-12909 (each in Dilution Buffer) for the hSERT, hNET, or hDAT assays, respectively.
(§9) Following a 10 minute incubation, at 37° C., with radioligand, the cells were harvested by rapid filtration over a 96-well UniFilter GF/B plate, pretreated with 1% BSA, and washed 6 times with 650 μl wash buffer (ice cold PBS). Plates were dried overnight at 37° C., ˜45 μl of MicroScint™-20 (Perkin Elmer) added and incorporated radioactivity quantitated via liquid scintillation spectroscopy Inhibition curves were analyzed using GraphPad Prism Software package (GraphPad Software, Inc., San Diego, Calif.). IC50 values were generated from concentration response curves using the Sigmoidal Dose Response (variable slope) algorithm in Prism GraphPad.

Test [6] deals with T1, SERT. The test can be described thus: hSERT neurotransmitter uptake assay (3H-5-HT). It is filed as cell-based. Also noted: expressed in transfected cells; host or cells: HEK-293. The note with it: serotonin reuptake inhibition, HEK-293 hSERT cells, 3H-5-HT (no asterisk); read-out: SERT pIC50 (converted). The protocol: as §6, §7, §8, §9
Target sequence in this assay (P31645 whole entry): as the sequence (P31645 whole entry, species assumed) above

T2 sequence (P23975 whole entry): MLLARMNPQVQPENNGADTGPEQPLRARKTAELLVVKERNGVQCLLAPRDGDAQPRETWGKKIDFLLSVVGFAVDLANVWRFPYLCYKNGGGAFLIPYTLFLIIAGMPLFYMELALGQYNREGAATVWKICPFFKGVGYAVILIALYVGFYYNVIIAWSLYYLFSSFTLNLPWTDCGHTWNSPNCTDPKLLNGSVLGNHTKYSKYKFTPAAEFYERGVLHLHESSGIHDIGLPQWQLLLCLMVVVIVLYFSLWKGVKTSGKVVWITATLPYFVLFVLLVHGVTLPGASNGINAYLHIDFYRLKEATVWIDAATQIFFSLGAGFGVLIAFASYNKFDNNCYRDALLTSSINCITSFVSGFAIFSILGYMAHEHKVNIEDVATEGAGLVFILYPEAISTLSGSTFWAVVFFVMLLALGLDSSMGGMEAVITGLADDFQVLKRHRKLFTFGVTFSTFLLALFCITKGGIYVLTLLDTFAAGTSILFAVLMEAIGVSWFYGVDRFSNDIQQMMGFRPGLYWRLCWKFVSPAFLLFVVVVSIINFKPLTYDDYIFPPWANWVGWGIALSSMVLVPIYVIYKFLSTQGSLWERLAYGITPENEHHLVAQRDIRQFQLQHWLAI

`CC(C)OC[C@H](Oc1cccc(Cl)c1Cl)[C@@H]1CCNC1` [Example 9-6, (R)-3-[(R)-1-(2,3-Dichlorophenoxy)-2-isopropoxyethyl]pyrrolidine]: the IC50 in test [1] and in test [4] was no more than 100 nM each time. For the same compound, the Ki in test [2] was no more than 100 nM; in test [3], no more than 10 nM.

For `COCC(Oc1cccc(Cl)c1Cl)C1CCNC1` (stereo not drawn) [Example 4-6, 3-[1-(2,3-Dichlorophenoxy)-2-methoxyethyl]pyrrolidine], the “NET pIC50” value in test [5] is given as “≧8.0”. Further, the “NET pKi” value in test [2] is “≧8.0”. For the same compound, the “SERT pKi” value in test [3] is reported as “≧8.0”.

For `CC(C)OC[C@H](Oc1ccc(Cl)cc1Cl)[C@@H]1CCNC1` [Example 9-22, (R)-3-[(R)-1-(2,4-Dichlorophenoxy)-2-isopropoxyethyl]pyrrolidine], the figures for the IC50 in test [1] and in test [4] were no more than 10 nM and no more than 1000 nM, respectively. For the same compound, the Ki in test [2] was no more than 1000 nM; in test [3], no more than 10 nM.

In the case of `CC(C)OC[C@H](Oc1cccc(Cl)c1C(F)(F)F)[C@@H]1CCNC1` [Example 9-18, (R)-3-[(R)-1-(3-Chloro-2-trifluoromethylphenoxy)-2-isopropoxyethyl]pyrrolidine], the IC50 in test [1] and in test [4] was no more than 100 nM in each case. For the same compound, the figures for the Ki in test [2] and in test [3] were no more than 100 nM and no more than 10 nM, respectively.

In the case of `CCOC[C@H](Oc1cccc2ccccc12)[C@H]1CCNC1` [Example 11, (S)-3-[(R)-2-Ethoxy-1-(naphthalen-1-yloxy)ethyl]pyrrolidine], the IC50 in test [5] (read-out: NET pIC50 (converted)) and in test [6] was no more than 10 nM in each case.

For the compound `Cc1c(Cl)cccc1O[C@@H](COC(C)C)[C@@H]1CCNC1` [Example 9-14, (R)-3-[(R)-1-(3-Chloro-2-methylphenoxy)-2-isopropoxyethyl]pyrrolidine], the figures for the IC50 in test [1] and in test [4] were no more than 10 nM and no more than 100 nM, respectively. Besides, the Ki in test [2] is no more than 100 nM; in test [3], no more than 10 nM.

For `CC(C)OC[C@H](Oc1cccc(F)c1Cl)[C@@H]1CCNC1` [Example 9-10, (R)-3-[(R)-1-(2-Chloro-3-fluorophenoxy)-2-isopropoxyethyl]pyrrolidine], the IC50 in test [1] and in test [4] was no more than 100 nM in each case. In addition, the Ki in test [2] and in test [3] was no more than 100 nM each time.

Regarding `COCC(Oc1ccc(Cl)cc1)C1CCNC1` (stereo not drawn) [Example 4-4, 3-[1-(4-Chlorophenoxy)-2-methoxyethyl]pyrrolidine], the Ki in test [2] is no more than 100 nM; in test [3], no more than 10 nM.

On to `Fc1cccc(O[C@@H](C2CCOCC2)[C@@H]2CCNC2)c1` [Example 13-5, (R)-3-[(S)-(3-Fluorophenoxy)(tetrahydropyran-4-yl)methyl]pyrrolidine], for which the Ki in test [2] and in test [3] was no more than 100 nM throughout.

As to `FC(F)(F)c1ccc(O[C@@H](C2CCOCC2)[C@H]2CCNC2)cc1` [Example 13-11, (S)-3-[(S)-(Tetrahydropyran-4-yl)(4-trifluoromethylphenoxy)methyl]pyrrolidine], the IC50 was no more than 10 nM in test [1] and no more than 100 nM in test [4]. The Ki in test [2] was no more than 100 nM; in test [3], no more than 10 nM.

Take `Clc1cc(Cl)cc(O[C@@H](C2CCOCC2)[C@H]2CCNC2)c1` [Example 13-28, (S)-3-[(S)-(3,5-Dichlorophenoxy)(tetrahydropyran-4-yl)methyl]pyrrolidine]: the Ki in test [2] is no more than 100 nM; in test [3], no more than 10 nM.

On to `CC(C)OC[C@H](Oc1cccc(C(F)(F)F)c1)[C@@H]1CCNC1` [Example 9-2, (R)-3-[(R)-2-Isopropoxy-1-(3-trifluoromethylphenoxy)ethyl]pyrrolidine], for which the IC50 in test [1] is no more than 100 nM; in test [4], no more than 1000 nM. Moreover, the Ki in test [2] was no more than 10000 nM; in test [3] it was no more than 100 nM.

In the case of `CC(C)OC[C@H](Oc1c(Cl)cccc1Cl)[C@@H]1CCNC1` [Example 9-27, (R)-3-[(R)-1-(2,6-Dichlorophenoxy)-2-isopropoxyethyl]pyrrolidine], the IC50 in test [1] was no more than 1000 nM; in test [4], no more than 100 nM. For the same compound, the Ki in test [2] and in test [3] was no more than 1000 nM in each case.

For `COCC(Oc1ccccc1Cl)C1CCNC1` (single isomer, unassigned) [Example 4-2, 3-[1-(2-Chlorophenoxy)-2-methoxyethyl]pyrrolidine], in test [2], the Ki is no more than 10 nM. For the same compound, in test [3], the “SERT pKi” value is “≧7.0”.

Source of the values: patent US8455665B2, “3-phenoxymethylpyrrolidine compounds” (Theravance, Inc., priority 2009, dated 2013).
